Experimental data reported in ChEMBL document CHEMBL3045885, “Evaluation of antileishmanial activities of triglycerides isolated from roots of Moringa stenopetala” (Med Chem Res, 2013).
Converted amounts (≈) assume the structure as drawn.

Legend:
[1] = system: Leishmania aethiopica; experiment: Antileishmanial activity against promastigote form of Leishmania aethiopica MHOM/ET/82/117-82 […] after 72 hr; assay type: functional, organism-based; conditions: MHOM/ET/82/117-82, 72 h
[2] = system: Leishmania aethiopica; experiment: Antileishmanial activity against amastigote form of Leishmania aethiopica MHOM/ET/82/117-82 infected in BALB/c mouse peritoneal exudate macrophages after 5 days; assay type: functional, organism-based; conditions: MHOM/ET/82/117-82, 120 h

IC50 [1]	IC50 [2]	Compound
242 µg/mL (≈ 274 µM)	26.8 µg/mL (≈ 30.3 µM)	CCCCC/C=C\C/C=C\CCCCCCCC(=O)OC(COC(=O)CCCCCCC/C=C\CCCCCCCC)COC(=O)CCCCCCC/C=C\CCCCCCCC
0.079 µg/mL (≈ 0.0896 µM)	40 µg/mL (≈ 45.4 µM)	CCCCC/C=C\C/C=C\CCCCCCCC(=O)OCC(COC(=O)CCCCCCC/C=C\C/C=C\CCCCC)OC(=O)CCCCCCC/C=C\CCCCCCCC
0.004 µg/mL (≈ 0.00433 µM)	0.032 µg/mL (≈ 0.0346 µM)	C[C@@H]1[C@H](O)[C@@H](C)/C=C/C=C/C=C/C=C/C=C/C=C/C=C/[C@H](O[C@@H]2O[C@H](C)[C@@H](O)[C@H](N)[C@@H]2O)C[C@@H]2O[C@](O)(C[C@@H](O)C[C@@H](O)[C@H](O)CC[C@@H](O)C[C@@H](O)CC(=O)O[C@H]1C)C[C@H](O)[C@H]2C(=O)O [AMPHOTERICIN B]
0.136 µg/mL (≈ 0.334 µM)	0.121 µg/mL (≈ 0.297 µM)	CCCCCCCCCCCCCCCCOP(=O)([O-])OCC[N+](C)(C)C [MILTEFOSINE]
